Data: PMC11409218, “Metal(triphenylphosphine)-atovaquone Complexes: Synthesis, Antimalarial Activity, and Suppression of Heme Detoxification” (Inorganic Chemistry, 2024)
Read-outs that look alike come from different tables or passages of the source.

What was measured:
[1] = tested on: P. falciparum W2 (CQ-resistant strain); assay: Antiplasmodial activity, asexual blood stages, HRP2 ELISA-based assay, W2 strain; type: cell-based, Plasmodium falciparum; settings: read-out: P. falciparum IC50 (±SEM), W2
Method: The potency of the metal complexes to inhibit parasite growth was also examined in comparison with ATV.
The two strains were synchronized twice with sorbitol before use,[69] and clonality was verified every 15 days through PCR genotyping of the polymorphic genetic markers msp1 and msp2 and microsatellite loci.[70],[71] Compounds were resuspended in DMSO and then diluted in RPMI-DMSO (99v/1v) to obtain final concentrations ranging from 0.25 to 20000 nM.
After freezing and then thawing, the hemolyzed cultures were homogenized by vortexing the plates. The drug susceptibility assay was performed using the HRP2 ELISA-based assay of the Malaria Ag Celisa kit (ref KM2159, Cellabs PTY LDT, Brookvale, Australia), as described previously.[72]

[2] = Interaction with ferriprotoporphyrin IX, spectroscopic titration of Soret band at 402 nm; type: binding; settings: pH 7.4; 40% aqueous DMSO; 1:1 complexation model; mean and SEM of three experiments
Method: The association constants (Log K) of the compounds with hemin were determined at pH 7.4 using a 1:1 complexation model with the equation proposed by Egan et al.[52] for the nonlinear least-squares fitting (Figure 2, Table 2).
Following a procedure described in the literature,[52] the association constant (Log K) of the drugs with ferriprotoporphyrin IX was determined in 40% aqueous DMSO. A stock solution of hemin chloride was prepared by adding 3.5 mg hemin to 10 mL DMSO and adjusted to pH 7.5. A working solution of hemin in 40% DMSO was further prepared by mixing 140 μL hemin stock solution, 5 mL distilled water, 3.86 mL DMSO, and 1 mL 0.2 M Tris (tris(hydroxymethyl)aminomethane) buffer. Aliquots of compounds were added to this working hemin solution. Blank solutions containing only hemin or compounds were prepared to subtract the absorbance of the compounds. […] Binding affinity was determined using the equation A = (A0 + A∞K[C])/(1 + K[C]) for a 1:1 complexation model using nonlinear least-squares fitting, where A0 is the absorbance of Fe(III)PPIX, A∞ is the absorbance of the compound–hemin adduct at saturation, and K is the association constant. Three independent experiments were performed.

[3] = tested on: β-hematin crystal formation; assay: β-Hematin crystal formation by FTIR spectroscopy; type: biochemical; settings: acid-buffered medium pH 5; 1:3 hematin/compound ratio
Method: The ability of these compounds to inhibit the formation of β-hematin crystals was investigated by IR spectroscopy (Figure 2f). Of note, β-hematin crystal formation was assayed in an acid-buffered medium, while hemin titration was assayed at neutral pH. […]. For both ATV and complexes 1–3, there may have been overlapping between a decrease in the (C = O) band of heme species and a (C = O) band of quinone. However, there was no danger of overlaps in the (C–O) band of heme species at 1210 cm^–1, since these species are absent from the drugs.
The conversion of hematin into β-hematin crystals was determined by FTIR spectroscopy as described previously.[52] In a microtube, 20 mg hemin and three equivalents of the compounds were dissolved in 3 mL 0.1 M NaOH solution and stirred for 30 min at 60 °C. Then, 0.3 mL 0.1 M HCl and 1.7 mL sodium acetate buffer (10 M, pH 5) were added at the same temperature. […] After incubation for 120 min, the reaction mixture was cooled on ice for 10 min and then centrifuged and washed with water to remove salts. Resulting crystals were dried and IR spectra were obtained using ATR mode.[66]−[68]

[4] = tested on: P. falciparum 3D7 (CQ-susceptible strain); assay: Antiplasmodial activity, asexual blood stages, HRP2 ELISA-based assay, 3D7 strain; type: cell-based, Plasmodium falciparum; settings: read-out: P. falciparum IC50 (±SEM), 3D7
Excerpt: We determined the half-maximal inhibitory concentration (IC50) of the complexes against asexual blood stages of P. falciparum using CQ-susceptible and CQ-resistant strains (Table 2). […]. Two strains were selected for the tests: the CQ-susceptible 3D7 strain (isolated in West Africa; obtained from MR4, VA, USA), and the CQ-resistant W2 strain (isolated in Indochina; obtained from MR4, VA, USA). Both were maintained in culture in RPMI 1640 (Invitrogen, Paisley, UK), supplemented with 10% human serum (Abcys S.A. Paris, France), and buffered with 25 mM HEPES and 25 mM NaHCO3. Parasites were grown in A-positive human blood (Etablissement Français du Sang, Marseille, France) in controlled atmospheric conditions that consisted of 10% O2, 5% CO2, and 85% N2 at 37 °C with 95% humidity. […]
For in vitro isotopic microtests, 25 μL/well of antimalarial drug and 200 μL/well of parasitized red blood cell suspension (final parasitemia 0.5%, final hematocrit 1.5%) were distributed into 96-well plates. The plates were incubated for 72 h at 37 °C in 85% N2, 10% O2, 5% CO2. After freezing and then thawing, the hemolyzed cultures were homogenized by vortexing the plates. The drug susceptibility assay was performed using the HRP2 ELISA-based assay of the Malaria Ag Celisa kit (ref KM2159, Cellabs PTY LDT, Brookvale, Australia), as described previously.[72] […] […]. IC50 are expressed as means of at least 5 to 7 independent experiments.

[5] = Cytotoxicity in mammalian cells (CellTiter-Glo), J774; type: cell-based; settings: mouse, J774 macrophage cells; J774 murine macrophage line; 72 h drug incubation; mean of three experiments; read-out: mammalian cells CC50 (±SEM), J774
Method: (§1) Cell lines J774 and HepG2 were incubated with the drug for 72 h, the same time frame as employed to determine antimalarial activity. Cytotoxicity was evaluated in parallel with ATV as a representative parental drug, while doxorubicin was used as a standard cytotoxic drug. These experiments were also used to estimate the in vitro selectivity index (Table 2).
(§2) Doxorubicin chloridrate (Eurofarma, São Paulo, Brazil) was used as a positive control, while untreated cells were employed as negative controls. Bioluminescence readings were performed using a Filtermax F5Multi-Mode instrument (Molecular Devices, Sunnyvale, CA) using the CellTiter-Glo kit (Promega Corporation, Madison, USA). Three independent experiments were performed and CC50 values were calculated.

[6] = Cytotoxicity in mammalian cells (CellTiter-Glo), HepG2; type: cell-based; settings: HepG2 hepatocellular carcinoma cells; HepG2 human hepatocellular carcinoma line; 72 h drug incubation; mean of three experiments; read-out: mammalian cells CC50 (±SEM), HepG2
Method: as §1, §2

J774 cells = assay: Cytotoxicity in mammalian cells (CellTiter-Glo), J774; type: cell-based; settings: J774 murine macrophage line; 72 h drug incubation; mean of three experiments; read-out: mammalian cells CC50 (±SEM), J774
Method: as §1, §2

[7] = CQ-resistant W2 strain, 72 h drug incubation, mean of five to seven experiments
[8] = CQ-susceptible 3D7 strain, 72 h drug incubation, mean of five to seven experiments

| SMILES | CC50 (J774 cells) [nM] | IC50 [1, 7] [nM] | IC50 [4, 8] [nM] | other results |
| --- | --- | --- | --- | --- |
| CCN(CC)CCCC(C)Nc1ccnc2cc(Cl)ccc12 (stereo not drawn) [CQ, chloroquine] | – | – | – | IC50 ([1]; Plasmodium falciparum, W2, 72 h): 526 ± 126 nM; log K (association constant of drug binding to hemin) [2]: 4.78 ± 0.01; inhibition of β-hematin crystal formation (IR bands 1663 and 1210 cm^–1) [3]: decreased simultaneously in these two bands; IC50 ([4]; Plasmodium falciparum, 3D7, 72 h): 23.8 ± 5.5 nM |
| COc1cccc2c1C(=O)c1c(O)c3c(c(O)c1C2=O)C[C@@](O)(C(=O)CO)C[C@@H]3O[C@H]1C[C@H](N)[C@H](O)[C@H](C)O1 [DOX, Doxorubicin, reference compound] | – | – | – | CC50 at 72 h [5]: 440 ± 310 nM; CC50 at 72 h [6]: < 120 nM |
| O=[N+]([O-])[O-].[Cu+].c1ccc(P(c2ccccc2)c2ccccc2)cc1.c1ccc(P(c2ccccc2)c2ccccc2)cc1 [[Cu(PPh3)2NO3]] | > 80000 | > 20000 | > 20000 | – |
| [Cl][Au].c1ccc(P(c2ccccc2)c2ccccc2)cc1 [AuClPPh3, [Au(PPh3)Cl]] | 4100 ± 800 | 3290 ± 629 | 1430 ± 309 | – |
